Data reported in patent publication US20090117089A1, “GLYCOLIPIDS AND ANALOGUES THEREOF AS ANTIGENS FOR NK T CELLS” (The Rockefeller University, priority 2005, published 2009).

Key:
spleen CD11c+ DCs = test: DC maturation in vivo (surface markers, flow cytometry); design: species or system mouse; conditions: for dose dependence of DC maturation: 2, 0.2, 0.02 and 0.002 μg/mouse; for DC maturation response compared with αCD40 mAb and polyIC: 15 h following i.v. administration; for DC maturation in Jα281−/− mice: mice lacking NKT cells; for phenotypic changes of DC maturation (CD40, CD86, MHC class II, B7-H1, B7-DC up, CD119 down): mouse, in vivo; for induction of splenic DC maturation in vivo: surface activation markers
Description: (§1) 2×10^7 irradiated J558-Ld^− cells, were injected i.v. or s.c. into Balb/c mice with or without α-Gal Cer as a DC maturation stimulus. In some experiments we compared α-Gal Cer to agonistic anti-CD40 mAb (1C10, 25 μg i.p.) or the toll like receptor ligands, poly IC ([…], Invivogen) or lipopolysaccharide (20 μgm, Sigma). The mice had been given CFSE-labeled PICTL CD8^+ T cells i.v. 1 d earlier, or were naive animals. In some experiments, mice were sacrificed 3 d later, and T cell division and activation in spleen were analyzed by flow cytometry. Additionally, 7 d or 2 months later, 5×10^6 live J558 tumor cells were inoculated subcutaneously. 5×10^6 Meth A fibrosarcoma was used as a control tumor for challenge. Tumor cell growth was measured with calipers every other day. Mice were scored positive for tumor as soon as tumors became palpable and grew progressively. Mice were euthanized when tumor size exceeded 400 mm^2.
(§2) T-cell division, phagocytosis of CFSE-labeled tumor cells and acquisition of cell surface-activation markers were determined by flow cytometry. Briefly, spleens were harvested and low-density splenocytes were stained with CD11c-APC and CD8α-PE, CD11b-PE, B220-PE or CD4-PE for the up-take examination. For in vivo proliferation of P1CTL T-cells, spleens were harvested and the splenocytes suspension was staining with CD8α-Cy, Vα8α-PE, CD25-PE, CD62L-PE. For intracellular cytokine staining, splenocytes were stimulated in vitro with 1 µg/ml P1A peptide in 5 μg/ml brefeldin A (Sigma-Aldrich) at 37° C. for 4 hrs. The cells were first stained with CD8α-Cy-Chrome™, fixed and permeabilized with cytofix-cytoperm buffer (BD Biosciences), and stained with PE conjugated mAbs to IL-2 or IFN-γ.
Flow cytometry. Acquisition of cell surface-activation markers was determined by flow cytometry. […] Spleen CD11c+ DCs were isolated using anti-CD11c magnetic beads and stained with CD11c-FITC, CD8α− allophycocyanin, and PE-Conjugated I-Ad, CD40, CD80, CD86, CD119, B7-H1 and B7-DC. We used a FACSCalibur™ with data analysis in FlowJo (Tree Star).

[1] = tested on: DCs from bone marrow progenitors; test: Direct DC maturation from bone marrow progenitors in culture; assay type: cell-based; conditions: data not shown
[2] = tested on: CD1d reactive T cell hybridomas with an invariant Vα14i T cell antigen receptor; test: 1.2 hybridoma assay (IL-2 release by ELISA); assay type: cell-based, mouse
Description: As a measure of T cell activation, IL-2 release into the tissue culture medium was measured after 16 hours culture by an ELISA assay.
As a measure of T cell activation, IL-2 and IFN-γ release into the tissue culture medium was measured after 16 hours culture by an ELISA assay.

[3] = target: T1, human CD1d dimers / invariant T cell receptor of human NKT cells (Homo sapiens, UniProt P15813); test: In vitro CD1d-dimer assay using a human NKT cell line; assay type: binding; conditions: dimers loaded with 40 μM glycolipid
T1 construct: soluble divalent human CD1d-IgG1 fusion protein; IgG1 (immunoglobulin fusion partner that makes the protein divalent); purchased BD Pharmingen / BD Biosciences (DimerX)
Description: One mg of soluble divalent human CD1d-IgG1 fusion protein (human CD1d-IgG1 dimers, BD Pharmingen) were incubated overnight with […] of each glycolipid at 32° C. and at neutral pH according to the manufacturer's protocol. The glycolipid-loaded CD1d-IgG1 dimers were incubated with human NKT cells at 4° C. for 60 minutes, followed by incubation with PE-coupled anti-mouse IgG1 mAb (A85-1). The cells were also surface stained with a PerCP-coupled anti-CD3 mAb (BD Pharmingen, San Diego, Calif.).
CD1d-dimer binding assay. CD1d dimer (DimerX, BD Biosciences) was incubated overnight with 40 μM of each glycolipid at 32° C. and at neutral pH according to the manufacturer's protocol. The loaded CD1d dimers were incubated with a human NKT cell line at 4° C. for 60 min, followed by incubation with APC-conjugated secondary antibody. The cells were also co-stained with mAbs against the invariant NKT cell receptor (Vα24/Vβ11). At least 2×10^5 lymphocyte-gated events were acquired to allow reliable estimation of NKT cells.

CD8+ P1CTL T cells = test: Proliferation and differentiation of P1A-specific P1CTL CD8+ T cells; assay type: in vivo, mouse
Description: CD8^+ P1A-specific, T cells were prepared from meshed cell suspensions of TCR transgenic lymph nodes and spleen by depleting B220, CD4, F4/80 and MHC class II-expressing cells using sheep anti-rat IgG Dynabeads®. For CFSE labeling (Molecular Probes), the cells at 10^7/ml in PBS were incubated with 5 μM CFSE for 10 min at 37° C. The reaction was stopped by washing three times with PBS.
as §1, §2

A20 tumor cells = test: Tumor protection assay, A20; assay type: in vivo, mouse; conditions: A20 challenge s.c.
Description: Mice were also injected i.v. with PBS, 2 μg α-Gal Cer, 5×10^6 irradiated A20 cells with or without 2 μg α-Gal Cer i.v. Two weeks later, mice were challenged with a lethal tumorogenic dose of 5×10^6 live A20 s.c. The mice were monitored every other day for tumor growth and were scored positive when the tumors were palpable.

binding of loaded CD1d dimers to Vα24/Vβ11 invariant TCR expressing NKT cells [3]	Compound	dose dependence of DC maturation (spleen CD11c+ DCs)	DC maturation response compared with αCD40 mAb and polyIC (spleen CD11c+ DCs)	surface markers on CD11c+CD8− DCs (spleen CD11c+ DCs; 15 hours after i.v. glycolipid)	upregulation of activation markers on CD11c+CD8+ DCs (spleen CD11c+ DCs; 15 hours after i.v. glycolipid, 2 or 0.2 μg per mouse)	DC maturation in Jα281−/− mice (spleen CD11c+ DCs)	phenotypic changes of DC maturation (CD40, CD86, MHC class II, B7-H1, B7-DC up, CD119 down) (spleen CD11c+ DCs)	induction of splenic DC maturation in vivo (spleen CD11c+ DCs)	direct stimulation of DC maturation [1]	biological activity in the 1.2 hybridoma assay (IL-2 secretion) [2]	marker expression on DCs that captured dying tumor cells (CD11c+ CFSE+) (spleen CD11c+ DCs; co-injection with irradiated J558− cells i.v.)	maturation of total CD11c+ splenic DCs (MHC II, CD80, CD86, B7-H1, B7-DC) (spleen CD11c+ DCs; co-injection with irradiated J558− cells i.v., 5 hours)	stimulation of naïve CD8+ P1CTL T cells in culture by isolated DCs (CD8+ P1CTL T cells; DCs from mice given dying J558 with α-Gal Cer)	P1CTL proliferation in vivo after DC transfer (CD8+ P1CTL T cells; DCs isolated 4 hours after immunization, 3 days)	IFN-γ and IL-2 production on restimulation with P1A peptide (CD8+ P1CTL T cells; T cells stimulated in vivo in presence of α-Gal Cer)	P1CTL T cell proliferation in vivo (CD8+ P1CTL T cells; irradiated J558− plus α-Gal Cer vs J558− alone, 3 days)	tumor outcome after combined vaccination (A20 tumor cells; irradiated A20 cells and α-Gal Cer i.v.)	tumor outcome after glycolipid alone (A20 tumor cells; α-Gal Cer pretreatment alone)	IL-2 release from the hybridomas ([2]; 1 μg/ml, CD1d transfected A20 cells)	IL-2 secretion ([2]; CD1d coated plates, Sphingomonas glycolipids and analogues)
to a lesser extent than α-GalCer	3-O-sulfo-alpha-galactosylceramide [Compound 24]	correlated with the dose of glycolipid administered	paralleled and exceeded those seen with other known stimuli for DC maturation in vivo	induced strong upregulation of CD86, B7-H1 and B7-DC but only slightly upregulated MHC II, CD40 and CD80	comparable to αGalCer	did not mature	induced similar phenotypic changes of maturation	rapid and efficient inducers of splenic DC maturation in vivo	unable to directly stimulate DC maturation from bone marrow progenitors in culture	moderately active	–	–	–	–	–	–	–	–	–	–
–	CCCCCCCCCCCCCCCCCCCCCCCCCC(=O)N[C@@H](CO[C@H]1O[C@H](CO)[C@H](O)[C@H](O)[C@H]1O)[C@H](O)[C@H](O)CCCCCCCCCCCCCC [α-GalCer, 2S,3S,4R-1-O(α-galactopyranosyl)-2(N-hexacosanoylamino)-1,3,4-octadecanetriol]	correlated with the dose of glycolipid administered	paralleled and exceeded those seen with other known stimuli for DC maturation in vivo	induced strong upregulation of CD86, B7-H1 and B7-DC but only slightly upregulated MHC II, CD40 and CD80	–	did not mature	induced similar phenotypic changes of maturation	rapid and efficient inducers of splenic DC maturation in vivo	unable to directly stimulate DC maturation from bone marrow progenitors in culture	–	strongly upregulated the expression of antigen presenting and costimulatory molecules	resulted in the maturation of the total CD11c^+ DC population	much more effective at stimulating proliferation of naïve CD8^+ T cells in culture	P1CTL proliferation was detected only in response to DCs from mice given tumor with α-Gal Cer	significantly more IFN-γ and IL-2	proliferated more extensively	protected and remained tumor-free	development of palpable tumors	greatest amount of IL-2 release	greater IL-2 secretion
